Laboratory results from US9517244B2, “Therapeutic combinations for use in neoplasia” (University of Florida Research Foundation, Inc., priority 2011, dated 2016).
Like-named read-outs stand apart in the source and are kept apart here.

How the values were obtained:
[1] = test system: colon cancer stem cells; assay: cell growth inhibition of colon cancer stem cells; assay type: cell-based, human; settings: alone, 1.25 μM, 72 h
Procedure: (§1) Cells were treated with 1.25 μM of NSC-30049 and 1.25 μM of OPT either alone or in combination for 72 h. Data are mean±SD of triplicate experiments. […] Cells were treated with 1.25 μM of NSC-30049 and 1.25 μM of OPT either alone or in combination for 72 h. Fold change in gene expression values is shown as mean±SD of three experiments and are normalized to GAPDH gene expression.
(§2) The effect of administration of NSC-30049 in combination with oxaliplatin (OPT) was also examined in human parental cancer cells and colon cancer stem cells (FIG. 9A). Cells were treated with 1.25 μM of NSC-30049 and […] of OPT either alone or in combination for 72 h. Cell growth inhibition was assayed. Data presented are mean±SD of triplicate experiments.

[2] = test system: HCT-116 + ch3; assay: MTT assay, MMR-proficient colon cancer cell line; assay type: cell-based
Procedure: (§3) The use of NSC-30049 as a chemopreventive agent for the treatment of colon cancer was also tested. In one experiment, NSC-30049 in combination with temozolomide was administered to colon cancer cell lines, including mismatch repair (MMR) proficient and MMR deficient cancer cell lines (Table 4). MMR proficient colon cancer cell lines tested included HCT-116+ch3, SW480, and HT29. MMR deficient cancer cell lines tested included HCT-116 and LoVo. Cells were pre-treated for 2 h with […] concentrations of NSC-30049 prior to treatment with temozolomide. After the treatment cells were allowed to grow for 72 hours. The cell growth inhibition was determined by MTT assay. Data presented are the mean±SE of three different estimations. The p value as compared to control of the Student's t-test is given in parenthesis. * p<0.05; ** p<0.01; *** p<0.001. Increasing the concentration of NSC-30049 decreased the IC50 of temozolomide for all cell lines tested, regardless of whether they were MMR proficient or deficient.
(§4) In addition to temozolomide, oxaliplatin is another chemotherapeutic agent used for the treatment of colon cancer. In another experiment, NSC-30049 in combination with oxaliplatin was administered to colon cancer cell lines, including mismatch repair (MMR) proficient and MMR deficient cancer cell lines (Table 5). MMR proficient colon cancer cell lines tested included HCT-116+ch3 and HT29. MMR deficient cancer cell lines tested included HCT-116 and LoVo. Cells were pre-treated with the indicated concentrations of NSC-33049 for 2 h followed by the treatment with different concentrations of oxaliplatin for additional 48 h. The cell growth inhibition was determined by MTT assay. Data presented are the mean±SE of three different estimations. The p value of Student's t-test as compared to the control is given in parenthesis (* p<0.05; ** p<0.01; *** p<0.001). Increasing the concentration of NSC-30049 decreased the IC50 of oxaliplatin for all cell lines tested, regardless of whether they were MMR proficient or deficient.

[3] = test system: HT29; assay: MTT assay, MMR-proficient colon cancer cell line; assay type: cell-based
Procedure: as §3, §4

[4] = test system: human parental cancer cells; assay: cell growth inhibition of parental cancer cells; assay type: cell-based; settings: alone, 1.25 μM, 72 h
Procedure: as §1, §2

[5] = test system: PANC1; assay: MTT assay, pancreatic cancer cell line; assay type: cell-based, human; settings: PANC1, 48 h, read-out: IC50 of Oxaliplatin
[6] = test system: BxPC3; assay: MTT assay, pancreatic cancer cell line; assay type: cell-based, human; settings: BxPC3, 48 h, read-out: IC50 of Oxaliplatin
[7] = test system: HCT-116; assay: MTT assay, MMR-deficient colon cancer cell line; assay type: cell-based
Procedure: as §3, §4

[8] = test system: LoVo; assay: MTT assay, MMR-deficient colon cancer cell line; assay type: cell-based
Procedure: as §3, §4

[9] = test system: A172; assay: MTT assay, brain cancer cell line; assay type: cell-based; settings: Homo sapiens, A 172, 120 h, read-out: IC50 of TMZ
Procedure: (§5) The use of NSC-30049 as a chemopreventive agent for the treatment of brain cancer was also tested. NSC-30049 in combination with temozolomide was administered to brain cancer cell lines, including U118, U138, U87MG, A172, and T98 cell lines (Table 6). Cells were pretreated with the indicated concentrations of NSC-30049 followed by TMZ for 120 h. After treatment, cells were processed for the determination of viability by cell proliferation assay (MTT assay). The data from the graph was used for the determination of IC50, which is presented as the mean±SE of three different estimations. Increasing the concentration of NSC-30049 decreased the IC50 of temozolomide for all cell lines tested, regardless of whether they were MMR proficient or deficient.

[10] = test system: T98; assay: MTT assay, brain cancer cell line; assay type: cell-based; settings: Homo sapiens, T98, 120 h, read-out: IC50 of TMZ
Procedure: as §5

[11] = test system: U87MG; assay: MTT assay, brain cancer cell line; assay type: cell-based; settings: Homo sapiens, U-87 MG, 120 h, read-out: IC50 of TMZ
Procedure: as §5

[12] = test system: U118; assay: MTT assay, brain cancer cell line; assay type: cell-based; settings: 120 h, read-out: IC50 of TMZ
Procedure: as §5

[13] = test system: U138; assay: MTT assay, brain cancer cell line; assay type: cell-based; settings: 120 h, read-out: IC50 of TMZ
Procedure: as §5

[14] = test system: SW480; assay: MTT assay, MMR-proficient colon cancer cell line; assay type: cell-based; settings: Homo sapiens, SW480, 72 h, read-out: IC50 of TMZ
Procedure: as §3

[15] = NSC-30049 0 μM, 48 h, read-out: IC50 of oxaliplatin
[16] = NSC-30049 1.0 μM, 48 h, read-out: IC50 of oxaliplatin
[17] = NSC-30049 2.5 μM, 48 h, read-out: IC50 of oxaliplatin
[18] = NSC-30049 5.0 μM, 48 h, read-out: IC50 of oxaliplatin
[19] = Homo sapiens, HCT-116, 72 h, NSC-30049 0 μM, 72 h, read-out: IC50 of TMZ
[20] = Homo sapiens, HCT-116, 72 h, NSC-30049 0.5 μM, 72 h, read-out: IC50 of TMZ
[21] = Homo sapiens, HCT-116, 72 h, NSC-30049 1.0 μM, 72 h, read-out: IC50 of TMZ
[22] = Homo sapiens, HCT-116, 72 h, NSC-30049 2.5 μM, 72 h, read-out: IC50 of TMZ

O=C1[O][Pt]2([NH][C@@H]3CCCC[C@H]3[NH]2)[O]C1=O [Oxaliplatin, oxaliplatin]
inhibition of growth [1]: ~40% | IC50 [2, 15]: 5.83 ± 0.36 µM | IC50 [2, 16]: 4.98 ± 0.17 µM | IC50 [2, 17]: 0.91 ± 0.12 µM | IC50 [2, 18]: 0.03 µM | IC50 [3, 15]: 0.92 ± 0.03 µM | IC50 [3, 16]: 0.82 ± 0.06 µM | IC50 [3, 17]: 0.59 ± 0.02 µM | IC50 [3, 18]: 0.03 µM | inhibition of growth [4]: ~65% | IC50 ([5]; NSC-30049 0 μM): 14.5 ± 0.38 µM | IC50 ([5]; NSC-30049 0.5 μM): 0.38 ± 0.06 µM | IC50 ([5]; NSC-30049 1.0 μM): 0.13 ± 0.04 µM | IC50 ([5]; NSC-30049 2.5 μM): 0.37 ± 0.22 µM | IC50 ([6]; NSC-30049 0 μM): 2 ± 0.4 µM | IC50 ([6]; NSC-30049 0.5 μM): 0.71 ± 0.39 µM | IC50 ([6]; NSC-30049 1.0 μM): 0.33 ± 0.06 µM | IC50 ([6]; NSC-30049 2.5 μM): 0.01 µM | IC50 [7, 15]: 1.5 ± 0.01 µM | IC50 [7, 16]: 0.78 ± 0.02 µM | IC50 [7, 17]: 0.03 µM | IC50 [7, 18]: 0.02 µM | IC50 [8, 15]: 0.75 ± 0.02 µM | IC50 ([8]; NSC-30049 0.5 μM, 48 h, read-out: IC50 of oxaliplatin): 0.59 ± 0.04 µM | IC50 [8, 16]: 0.07 ± 0.02 µM | IC50 [8, 17]: 0.03 µM

Cn1nnc2c(C(N)=O)ncn2c1=O [TMZ, Temozolomide]
IC50 ([9]; NSC-30049 0 μM): 154 ± 6.8 µM | IC50 ([9]; NSC-30049 1.0 μM): 89.5 ± 7.8 µM | IC50 ([9]; NSC-30049 2.5 μM): 82.9 ± 5.1 µM | IC50 ([9]; NSC-30049 5.0 μM): 75.1 ± 5.2 µM | IC50 ([10]; NSC-30049 0 μM): 554 ± 53.9 µM | IC50 ([10]; NSC-30049 1.0 μM): 511 ± 14.7 µM | IC50 ([10]; NSC-30049 2.5 μM): 382 ± 5.9 µM | IC50 ([10]; NSC-30049 5.0 μM): 245 ± 8.7 µM | IC50 ([11]; NSC-30049 0 μM): 493 ± 83.9 µM | IC50 ([11]; NSC-30049 1.0 μM): 33 ± 5.1 µM | IC50 ([11]; NSC-30049 2.5 μM): 19.9 ± 10.5 µM | IC50 ([11]; NSC-30049 5.0 μM): 13.7 ± 8.5 µM | IC50 ([12]; NSC-30049 0 μM): 136 ± 3.7 µM | IC50 ([12]; NSC-30049 1.0 μM): 78.4 ± 1.3 µM | IC50 ([12]; NSC-30049 2.5 μM): 14.5 ± 2.5 µM | IC50 ([12]; NSC-30049 5.0 μM): 1.1 ± 3 µM | IC50 ([13]; NSC-30049 0 μM): 432 ± 19.1 µM | IC50 ([13]; NSC-30049 1.0 μM): 278 ± 14.6 µM | IC50 ([13]; NSC-30049 2.5 μM): 3.8 ± 0.4 µM | IC50 ([13]; NSC-30049 5.0 μM): 0.8 ± 0.02 µM | IC50 ([14]; NSC-30049 0 μM): 377 ± 12 µM | IC50 ([14]; NSC-30049 0.5 μM): 325 ± 18 µM | IC50 ([14]; NSC-30049 1.0 μM): 167 ± 49 µM | IC50 ([14]; NSC-30049 2.5 μM): 0.47 ± 0.03 µM | IC50 [2, 19]: 236 ± 23 µM | IC50 [2, 20]: 206 ± 13 µM | IC50 [2, 21]: 153 ± 10 µM | IC50 [2, 22]: 0.73 ± 0.04 µM | IC50 ([2]; Homo sapiens, HCT-116, 72 h, NSC-30049 5.0 μM, 72 h, read-out: IC50 of TMZ): 0.35 ± 0.01 µM | IC50 ([3]; Homo sapiens, HT-29, 72 h, NSC-30049 0 μM, 72 h, read-out: IC50 of TMZ): 1450 ± 144 µM | IC50 ([3]; Homo sapiens, HT-29, 72 h, NSC-30049 0.5 μM, 72 h, read-out: IC50 of TMZ): 1270 ± 60 µM | IC50 ([3]; Homo sapiens, HT-29, 72 h, NSC-30049 1.0 μM, 72 h, read-out: IC50 of TMZ): 815 ± 93 µM | IC50 ([3]; Homo sapiens, HT-29, 72 h, NSC-30049 2.5 μM, 72 h, read-out: IC50 of TMZ): 248 ± 59 µM | IC50 ([3]; Homo sapiens, HT-29, 72 h, NSC-30049 5.0 μM, 72 h, read-out: IC50 of TMZ): 5.33 ± 0.07 µM | IC50 [7, 19]: 620 ± 11 µM | IC50 [7, 20]: 361 ± 10 µM | IC50 [7, 21]: 160 ± 63 µM | IC50 [7, 22]: 3.81 ± 0.11 µM | IC50 ([8]; Homo sapiens, 72 h, NSC-30049 0 μM, 72 h, read-out: IC50 of TMZ): 1106 ± 0.02 µM | IC50 ([8]; Homo sapiens, 72 h, NSC-30049 0.5 μM, 72 h, read-out: IC50 of TMZ): 366 ± 6 µM | IC50 ([8]; Homo sapiens, 72 h, NSC-30049 1.0 μM, 72 h, read-out: IC50 of TMZ): 8 ± 0.8 µM | IC50 ([8]; Homo sapiens, 72 h, NSC-30049 2.5 μM, 72 h, read-out: IC50 of TMZ): 3.82 ± 0.09 µM
